Laboratory results taken from ChEMBL document CHEMBL5360540, “Antitumor effect of 3-(quinolin-2-ylmethylene)-4,6-dimethyl-5-hydroxy-7-azaoxindole down-regulating the Gas6-Axl axis” (Eur J Med Chem, 2023).
Calls of active or inactive are those of the source. The calls are words filed in the database; no cut-off is given here.

Legend:
[1] = test system: MCF7; experiment: Cytotoxicity against human MCF7 cells assessed as inhibition of cell growth at 30 uM incubated for 48 hrs by MTT assay relative to control; format: functional
[2] = test system: PANC-1; experiment: Cytotoxicity against human PANC-1 cells assessed as inhibition of cell growth at 30 uM incubated for 48 hrs by MTT assay relative to control; format: functional
[3] = test system: MCF7; experiment: Cytotoxicity against human MCF7 cells assessed as inhibition of cell growth incubated for 48 hrs by MTT assay; format: functional, cell-based; conditions: MCF7, 48 h
[4] = test system: MDA-MB-231; experiment: Cytotoxicity against human MDA-MB-231 cells assessed as inhibition of cell growth incubated for 48 hrs by MTT assay; format: functional, cell-based; conditions: MDA-MB-231, 48 h
[5] = test system: HT-29; experiment: Cytotoxicity against human HT-29 cells assessed as inhibition of cell growth incubated for 48 hrs by MTT assay; format: functional, cell-based; conditions: HT-29, 48 h
[6] = test system: DU-145; experiment: Cytotoxicity against human DU-145 cells assessed as inhibition of cell growth incubated for 48 hrs by MTT assay; format: functional, cell-based; conditions: DU-145, 48 h
[7] = test system: U-937; experiment: Cytotoxicity against human U-937 cells assessed as inhibition of cell growth incubated for 48 hrs by MTT assay; format: functional, cell-based; conditions: U-937, 48 h
[8] = test system: A549; experiment: Cytotoxicity against human A549 cells assessed as inhibition of cell growth incubated for 48 hrs by MTT assay; format: functional, cell-based; conditions: A549, 48 h
[9] = test system: PANC-1; experiment: Cytotoxicity against human PANC-1 cells assessed as inhibition of cell growth incubated for 48 hrs by MTT assay; format: functional, cell-based; conditions: PANC-1, 48 h
[10] = Cytotoxicity against CHO-K1 cells assessed as inhibition of cell growth incubated for 48 hrs by MTT assay; format: toxicity, cell-based, Cricetulus griseus; conditions: Chinese hamster
[11] = Cytotoxicity against HEK293 cells assessed as inhibition of cell growth incubated for 48 hrs by MTT assay; format: toxicity, cell-based; conditions: human
[12] = Safety index, ratio of IC50 for CHO-K1 cells to IC50 for human MCF7 cells; format: toxicity; conditions: Chinese hamster (CHO-K1), CHO-K1 cells versus MCF7 cells, read-out: Ratio IC50
[13] = Safety index, ratio of IC50 for CHO-K1 cells to IC50 for human MDA-MB-231 cells; format: toxicity; conditions: Chinese hamster (CHO-K1), CHO-K1 cells versus MDA-MB-231 cells, read-out: Ratio IC50
[14] = Safety index, ratio of IC50 for CHO-K1 cells to IC50 for human HT-29 cells; format: toxicity; conditions: Chinese hamster (CHO-K1), CHO-K1 cells versus HT-29 cells, read-out: Ratio IC50
[15] = Safety index, ratio of IC50 for CHO-K1 cells to IC50 for human DU-145 cells; format: toxicity; conditions: Chinese hamster (CHO-K1), CHO-K1 cells versus DU-145 cells, read-out: Ratio IC50
[16] = Safety index, ratio of IC50 for CHO-K1 cells to IC50 for human U-937 cells; format: toxicity; conditions: Chinese hamster (CHO-K1), CHO-K1 cells versus U-937 cells, read-out: Ratio IC50
[17] = Safety index, ratio of IC50 for CHO-K1 cells to IC50 for human A549 cells; format: toxicity; conditions: Chinese hamster (CHO-K1), CHO-K1 cells versus A549 cells, read-out: Ratio IC50
[18] = Safety index, ratio of IC50 for CHO-K1 cells to IC50 for human PANC-1 cells; format: toxicity; conditions: Chinese hamster (CHO-K1), CHO-K1 cells versus PANC-1 cells, read-out: Ratio IC50
[19] = Safety index, ratio of IC50 for HEK293 cells to IC50 for human MCF7 cells; format: toxicity; conditions: HEK293 cells versus MCF7 cells, read-out: Ratio IC50
[20] = Safety index, ratio of IC50 for HEK293 cells to IC50 for human MDA-MB-231 cells; format: toxicity; conditions: HEK293 cells versus MDA-MB-231 cells, read-out: Ratio IC50
[21] = Safety index, ratio of IC50 for HEK293 cells to IC50 for human HT-29 cells; format: toxicity; conditions: HEK293 cells versus HT-29 cells, read-out: Ratio IC50
[22] = Safety index, ratio of IC50 for HEK293 cells to IC50 for human DU-145 cells; format: toxicity; conditions: HEK293 cells versus DU-145 cells, read-out: Ratio IC50
[23] = Safety index, ratio of IC50 for HEK293 cells to IC50 for human U-937 cells; format: toxicity; conditions: HEK293 cells versus U-937 cells, read-out: Ratio IC50
[24] = Safety index, ratio of IC50 for HEK293 cells to IC50 for human A549 cells; format: toxicity; conditions: HEK293 cells versus A549 cells, read-out: Ratio IC50
[25] = Safety index, ratio of IC50 for HEK293 cells to IC50 for human PANC-1 cells; format: toxicity; conditions: HEK293 cells versus PANC-1 cells, read-out: Ratio IC50
[26] = test system: PANC-1; experiment: Antitumor activity against human PANC-1 cells xenografted in BALB/c nude mouse assessed as reduction in tumor growth at 50 mg/kg, ip administered 3 times a week and measured on 30 days by caliper analysis; format: functional, organism-based; conditions: time 30.0 day
[27] = test system: PANC-1; experiment: Antitumor activity against human PANC-1 cells xenografted in BALB/c nude mouse assessed as animal survival rate at 50 mg/kg, ip administered 3 times a week and measured for 100 days; format: functional; conditions: PANC-1, 2400 h, time 100 day
[28] = target: Vascular endothelial growth factor receptor 2 (Homo sapiens, UniProt P35968); experiment: Inhibition of human VEGFR2 using MEK1 as substrate incubated for 40 mins by gamma33P-ATP based scintillation counter analysis
[29] = target: Platelet-derived growth factor receptor beta (Homo sapiens, UniProt P09619); experiment: Inhibition of human PDGFRbeta using MEK1 as substrate incubated for 40 mins by gamma33P-ATP based scintillation counter analysis
Sequence of Platelet-derived growth factor receptor beta (P09619 whole entry): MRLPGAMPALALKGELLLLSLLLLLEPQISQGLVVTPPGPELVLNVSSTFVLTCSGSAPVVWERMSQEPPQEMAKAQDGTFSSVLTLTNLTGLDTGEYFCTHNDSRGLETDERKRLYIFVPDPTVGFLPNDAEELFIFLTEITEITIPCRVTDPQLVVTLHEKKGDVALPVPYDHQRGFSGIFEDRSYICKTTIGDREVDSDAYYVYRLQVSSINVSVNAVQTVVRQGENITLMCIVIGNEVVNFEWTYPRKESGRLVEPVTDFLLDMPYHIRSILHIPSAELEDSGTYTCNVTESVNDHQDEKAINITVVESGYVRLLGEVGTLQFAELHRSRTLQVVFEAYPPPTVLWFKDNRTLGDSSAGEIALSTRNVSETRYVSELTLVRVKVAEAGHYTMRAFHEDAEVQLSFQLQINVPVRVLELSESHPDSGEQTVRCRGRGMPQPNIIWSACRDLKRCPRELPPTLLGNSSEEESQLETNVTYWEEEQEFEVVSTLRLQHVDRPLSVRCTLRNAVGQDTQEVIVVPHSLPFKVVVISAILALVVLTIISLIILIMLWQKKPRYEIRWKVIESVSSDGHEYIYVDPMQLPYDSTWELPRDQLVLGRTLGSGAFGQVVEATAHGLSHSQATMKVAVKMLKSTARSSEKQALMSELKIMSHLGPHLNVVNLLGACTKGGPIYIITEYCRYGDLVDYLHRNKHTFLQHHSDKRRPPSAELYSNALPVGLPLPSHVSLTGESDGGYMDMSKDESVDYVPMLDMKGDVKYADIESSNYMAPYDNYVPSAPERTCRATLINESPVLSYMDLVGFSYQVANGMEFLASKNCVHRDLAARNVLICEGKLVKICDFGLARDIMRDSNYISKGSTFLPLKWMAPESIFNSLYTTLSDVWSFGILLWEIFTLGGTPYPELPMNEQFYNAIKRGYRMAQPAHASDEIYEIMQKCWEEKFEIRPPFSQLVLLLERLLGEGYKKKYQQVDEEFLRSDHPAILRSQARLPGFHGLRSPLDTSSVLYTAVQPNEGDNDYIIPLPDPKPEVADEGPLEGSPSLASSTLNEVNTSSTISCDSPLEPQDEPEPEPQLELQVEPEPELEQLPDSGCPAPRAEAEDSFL

[30] = target: Mast/stem cell growth factor receptor Kit (Homo sapiens, UniProt P10721); experiment: Inhibition of human c-Kit using MEK1 as substrate incubated for 40 mins by gamma33P-ATP based scintillation counter analysis
Sequence of Mast/stem cell growth factor receptor Kit (P10721 whole entry): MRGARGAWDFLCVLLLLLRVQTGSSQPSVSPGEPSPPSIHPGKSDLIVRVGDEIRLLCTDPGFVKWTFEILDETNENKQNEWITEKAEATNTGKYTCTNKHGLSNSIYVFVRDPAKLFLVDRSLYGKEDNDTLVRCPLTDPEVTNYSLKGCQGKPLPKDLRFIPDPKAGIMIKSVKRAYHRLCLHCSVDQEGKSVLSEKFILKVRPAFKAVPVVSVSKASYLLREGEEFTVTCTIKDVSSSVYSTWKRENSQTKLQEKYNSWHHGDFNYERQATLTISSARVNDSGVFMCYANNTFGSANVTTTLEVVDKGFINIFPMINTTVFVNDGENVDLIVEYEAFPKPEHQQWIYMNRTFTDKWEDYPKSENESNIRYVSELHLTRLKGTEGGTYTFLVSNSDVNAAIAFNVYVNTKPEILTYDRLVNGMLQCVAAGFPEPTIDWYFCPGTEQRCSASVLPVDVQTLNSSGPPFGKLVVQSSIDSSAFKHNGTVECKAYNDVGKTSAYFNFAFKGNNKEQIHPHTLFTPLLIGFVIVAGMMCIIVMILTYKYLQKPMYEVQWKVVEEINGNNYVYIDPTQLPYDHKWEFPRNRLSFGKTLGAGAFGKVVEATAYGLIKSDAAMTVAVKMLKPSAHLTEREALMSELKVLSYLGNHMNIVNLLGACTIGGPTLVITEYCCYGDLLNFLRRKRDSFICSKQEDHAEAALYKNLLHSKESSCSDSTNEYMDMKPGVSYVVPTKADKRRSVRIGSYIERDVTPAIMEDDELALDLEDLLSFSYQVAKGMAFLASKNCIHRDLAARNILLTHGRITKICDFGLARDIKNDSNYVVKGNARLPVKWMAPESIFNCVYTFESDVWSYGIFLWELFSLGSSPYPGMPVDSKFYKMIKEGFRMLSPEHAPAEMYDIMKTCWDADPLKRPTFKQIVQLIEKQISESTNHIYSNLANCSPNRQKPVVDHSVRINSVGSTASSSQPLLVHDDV

[31] = target: T1, Receptor-type tyrosine-protein kinase FLT3 (Homo sapiens, UniProt P36888); experiment: Inhibition of human FLT3 using MEK1 as substrate incubated for 40 mins by gamma33P-ATP based scintillation counter analysis
T1 sequence (P36888 whole entry): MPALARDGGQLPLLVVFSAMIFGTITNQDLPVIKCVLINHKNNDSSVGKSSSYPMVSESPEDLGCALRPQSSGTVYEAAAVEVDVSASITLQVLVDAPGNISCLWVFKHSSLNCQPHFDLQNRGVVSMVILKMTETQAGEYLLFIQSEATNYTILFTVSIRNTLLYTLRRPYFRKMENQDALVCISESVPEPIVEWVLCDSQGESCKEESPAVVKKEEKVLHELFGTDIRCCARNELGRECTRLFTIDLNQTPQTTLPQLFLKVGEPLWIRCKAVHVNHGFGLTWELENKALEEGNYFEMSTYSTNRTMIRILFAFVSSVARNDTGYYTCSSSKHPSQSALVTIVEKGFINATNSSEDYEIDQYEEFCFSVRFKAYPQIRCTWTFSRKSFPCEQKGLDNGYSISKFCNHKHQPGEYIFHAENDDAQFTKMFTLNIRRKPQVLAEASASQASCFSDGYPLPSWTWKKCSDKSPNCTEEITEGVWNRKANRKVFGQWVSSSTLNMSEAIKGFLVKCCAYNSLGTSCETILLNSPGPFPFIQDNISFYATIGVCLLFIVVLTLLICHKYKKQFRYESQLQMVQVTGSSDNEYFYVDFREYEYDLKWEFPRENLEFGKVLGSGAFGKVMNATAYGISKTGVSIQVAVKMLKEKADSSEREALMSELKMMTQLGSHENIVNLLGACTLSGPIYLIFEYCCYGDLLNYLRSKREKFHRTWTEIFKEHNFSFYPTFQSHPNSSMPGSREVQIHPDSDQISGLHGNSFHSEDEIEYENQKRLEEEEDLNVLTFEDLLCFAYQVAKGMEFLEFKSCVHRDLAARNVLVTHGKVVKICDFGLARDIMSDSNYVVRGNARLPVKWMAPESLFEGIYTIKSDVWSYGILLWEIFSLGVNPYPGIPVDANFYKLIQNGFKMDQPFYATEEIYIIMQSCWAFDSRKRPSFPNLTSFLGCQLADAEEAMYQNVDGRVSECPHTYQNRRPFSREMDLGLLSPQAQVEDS

[32] = target: Macrophage colony-stimulating factor 1 receptor (Homo sapiens, UniProt P07333); experiment: Inhibition of human CSF1R using MEK1 as substrate incubated for 40 mins by gamma33P-ATP based scintillation counter analysis
Sequence of Macrophage colony-stimulating factor 1 receptor (P07333 whole entry): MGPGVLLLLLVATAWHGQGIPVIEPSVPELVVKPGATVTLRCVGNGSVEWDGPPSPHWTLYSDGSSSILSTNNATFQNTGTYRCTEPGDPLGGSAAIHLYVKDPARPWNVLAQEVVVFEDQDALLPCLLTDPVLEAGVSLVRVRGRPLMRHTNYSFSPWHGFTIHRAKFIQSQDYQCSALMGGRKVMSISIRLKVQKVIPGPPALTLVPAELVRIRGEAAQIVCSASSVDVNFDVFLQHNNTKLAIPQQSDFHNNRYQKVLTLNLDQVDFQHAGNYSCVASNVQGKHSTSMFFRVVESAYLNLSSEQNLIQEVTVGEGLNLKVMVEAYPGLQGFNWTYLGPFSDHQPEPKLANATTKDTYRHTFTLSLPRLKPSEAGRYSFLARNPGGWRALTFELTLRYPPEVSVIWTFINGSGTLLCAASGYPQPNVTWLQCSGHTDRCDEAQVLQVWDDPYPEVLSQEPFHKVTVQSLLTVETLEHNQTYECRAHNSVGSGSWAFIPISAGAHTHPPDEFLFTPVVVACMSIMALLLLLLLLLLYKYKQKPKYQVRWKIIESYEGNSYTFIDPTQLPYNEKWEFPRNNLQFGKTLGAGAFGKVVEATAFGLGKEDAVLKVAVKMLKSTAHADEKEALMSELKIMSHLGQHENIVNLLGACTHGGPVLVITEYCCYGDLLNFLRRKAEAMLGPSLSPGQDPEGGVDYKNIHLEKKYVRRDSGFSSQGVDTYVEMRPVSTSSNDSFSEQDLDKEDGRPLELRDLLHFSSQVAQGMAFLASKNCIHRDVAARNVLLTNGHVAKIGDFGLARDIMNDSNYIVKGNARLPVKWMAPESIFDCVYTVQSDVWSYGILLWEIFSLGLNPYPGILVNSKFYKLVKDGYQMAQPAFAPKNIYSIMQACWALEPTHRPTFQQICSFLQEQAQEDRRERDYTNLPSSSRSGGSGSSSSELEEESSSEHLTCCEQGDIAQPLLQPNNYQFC

[33] = target: Epidermal growth factor receptor (Homo sapiens, UniProt P00533); experiment: Inhibition of human EGFR using MEK1 as substrate incubated for 40 mins by gamma33P-ATP based scintillation counter analysis
Sequence of Epidermal growth factor receptor (P00533 whole entry): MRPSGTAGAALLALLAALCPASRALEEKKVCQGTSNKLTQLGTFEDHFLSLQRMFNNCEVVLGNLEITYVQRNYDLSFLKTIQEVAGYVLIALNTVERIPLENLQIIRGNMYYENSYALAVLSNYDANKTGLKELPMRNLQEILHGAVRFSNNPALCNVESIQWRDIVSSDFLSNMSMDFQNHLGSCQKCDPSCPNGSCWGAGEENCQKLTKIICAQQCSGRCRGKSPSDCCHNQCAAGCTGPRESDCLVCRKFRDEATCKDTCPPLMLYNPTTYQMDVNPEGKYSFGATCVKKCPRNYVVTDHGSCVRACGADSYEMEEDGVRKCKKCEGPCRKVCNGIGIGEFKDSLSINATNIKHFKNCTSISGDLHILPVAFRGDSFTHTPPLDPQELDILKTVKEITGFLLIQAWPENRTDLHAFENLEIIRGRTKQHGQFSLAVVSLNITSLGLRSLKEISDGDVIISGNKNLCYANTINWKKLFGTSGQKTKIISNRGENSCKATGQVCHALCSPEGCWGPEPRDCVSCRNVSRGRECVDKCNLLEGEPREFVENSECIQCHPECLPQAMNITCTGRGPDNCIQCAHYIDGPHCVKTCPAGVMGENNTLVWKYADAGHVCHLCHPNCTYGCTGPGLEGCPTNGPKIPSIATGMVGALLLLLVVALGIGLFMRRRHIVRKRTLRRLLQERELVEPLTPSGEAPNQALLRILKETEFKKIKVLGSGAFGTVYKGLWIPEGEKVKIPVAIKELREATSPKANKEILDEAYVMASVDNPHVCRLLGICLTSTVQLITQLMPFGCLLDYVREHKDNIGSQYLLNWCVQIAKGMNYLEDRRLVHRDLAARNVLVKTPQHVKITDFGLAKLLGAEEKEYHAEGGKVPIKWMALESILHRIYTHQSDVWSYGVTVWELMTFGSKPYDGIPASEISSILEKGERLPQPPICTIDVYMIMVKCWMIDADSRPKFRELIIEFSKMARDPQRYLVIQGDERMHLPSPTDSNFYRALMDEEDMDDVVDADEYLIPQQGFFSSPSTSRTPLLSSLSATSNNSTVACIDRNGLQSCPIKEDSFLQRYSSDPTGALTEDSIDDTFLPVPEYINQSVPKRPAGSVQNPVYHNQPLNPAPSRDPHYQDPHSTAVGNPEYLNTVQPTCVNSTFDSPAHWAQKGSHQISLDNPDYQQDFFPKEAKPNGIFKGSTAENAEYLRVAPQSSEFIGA

[34] = test system: PANC-1; experiment: Antitumor activity against human PANC-1 cells xenografted in BALB/c nude mouse assessed as animal survival rate at 3 mg/kg, ip administered 6 times a week and measured for 100 days; format: functional; conditions: PANC-1, 2400 h, time 100 day

SMILES | inhibition at 30 µM [1] [%] | inhibition at 30 µM [2] [%] | IC50 [3] [µM] | IC50 [4] [µM] | IC50 [5] [µM] | IC50 [6] [µM] | IC50 [7] [µM] | IC50 [8] [µM] | IC50 [9] [µM] | IC50 at 48 h [10] [µM] | IC50 at 48 h [11] [µM] | selectivity ratio [12] | selectivity ratio [13] | selectivity ratio [14] | selectivity ratio [15] | selectivity ratio [16] | selectivity ratio [17] | selectivity ratio [18] | selectivity ratio [19] | selectivity ratio [20] | also measured
Cc1nc2c(c(C)c1O)/C(=C/c1cccnc1)C(=O)N2 | 78 | 72.8 | 17.4 | 9.6 | 20 | 1.2 | 14.5 | 13.8 | 51.3 | 78.5 | 33 | 4.5 | 8.2 | 3.9 | 65.4 | 5.4 | 5.7 | 1.5 | 1.9 | 3.4 | selectivity ratio [21]: 1.7; selectivity ratio [22]: 27.5; selectivity ratio [23]: 2.3; selectivity ratio [24]: 2.4; selectivity ratio [25]: 0.6
Cc1nc2c(c(C)c1O)/C(=C/c1ccc(N(C)C)cc1)C(=O)N2 | 62.5 | 66.4 | 13.2 | 12.1 | 36.3 | 1.1 | > 90 | 13.2 | 13.8 | > 90 | > 90 | > 6.8 | > 7.4 | > 2.5 | > 81.8 | > 1 | > 6.8 | > 6.5 | > 6.8 | > 7.4 | selectivity ratio [21]: > 2.5; selectivity ratio [22]: > 81.8; selectivity ratio [23]: > 1; selectivity ratio [24]: > 6.8; selectivity ratio [25]: > 6.5
Nc1ccn([C@@H]2O[C@H](CO)[C@@H](O)C2(F)F)c(=O)n1 [GEMCITABINE] |  |  |  |  |  |  |  |  |  |  |  |  |  |  |  |  |  |  |  |  | Activity [26]: inactive; survival at 50 mg/kg [27]: 80%
Cc1nc2c(c(C)c1O)/C(=C/c1ccc3ccccc3n1)C(=O)N2 |  |  |  |  |  |  |  |  |  |  |  |  |  |  |  |  |  |  |  |  | IC50 [28]: > 10 µM; IC50 [29]: 1 µM; IC50 [30]: 5.7 µM; IC50 [31]: > 10 µM; IC50 [32]: 12.9 µM; IC50 [33]: 18.8 µM; survival at 3 mg/kg [34]: 100%
